Laboratory results published in the supplement of paper PMC10307832.

Assays:
Assay in all cases: relative viability (nuclei count vs DMSO), 5 days (fraction); higher = more cells survive
AZ505 + Decitabine = compound: C1CCC(CC1)N(CCNCCC2=C3C(=C(C=C2)O)NC(=O)CO3)C(=O)CCNCCC4=CC(=C(C=C4)Cl)Cl [AZ505] + Nc1ncn([C@H]2C[C@H](O)[C@@H](CO)O2)c(=O)n1 [Decitabine] (partner 2 µM)
Procedure, shortened: (§1)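 Lung cancer cell lines in 1536-well plates were dosed by pin tool the day after seeding, either with one drug alone or with a fixed anchor-drug dose plus five library-drug doses (not always all listed) in √10 steps. After 5 days, cells were fixed and their nuclei stained in one step (final 0.05% Triton X-100, 1% formaldehyde, 1 ug/ml Hoechst), then counted on 4× images. Relative viability is the nuclei count in treated wells divided by that in vehicle wells. Values are medians of duplicate plates.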

AZ505 + Pictilisib = compound: C1CCC(CC1)N(CCNCCC2=C3C(=C(C=C2)O)NC(=O)CO3)C(=O)CCNCCC4=CC(=C(C=C4)Cl)Cl [AZ505] + CS(=O)(=O)N1CCN(Cc2cc3nc(-c4cccc5[nH]ncc45)nc(N4CCOCC4)c3s2)CC1 [Pictilisib] (partner 1 µM)
Procedure, shortened: as §1

Dactolisib + AZD7762 = compound: Cn1c(=O)n(-c2ccc(C(C)(C)C#N)cc2)c2c3cc(-c4cnc5ccccc5c4)ccc3ncc21 [Dactolisib] + NC(=O)Nc1cc(-c2cccc(F)c2)sc1C(=O)N[C@H]1CCCNC1 [AZD7762] (partner 0.2 µM)
Procedure, shortened: as §1

Dactolisib + Trametinib = compound: Cn1c(=O)n(-c2ccc(C(C)(C)C#N)cc2)c2c3cc(-c4cnc5ccccc5c4)ccc3ncc21 [Dactolisib] + CC(=O)Nc1cccc(-n2c(=O)n(C3CC3)c(=O)c3c(Nc4ccc(I)cc4F)n(C)c(=O)c(C)c32)c1 [Trametinib] (partner 0.02 µM)
Procedure, shortened: as §1

Cell Line | relative viability (AZ505 + Decitabine; first compound 0.08 µM) | relative viability (AZ505 + Decitabine; first compound 0.253 µM) | relative viability (AZ505 + Decitabine; first compound 0.8 µM) | relative viability (AZ505 + Decitabine; first compound 2.53 µM) | relative viability (AZ505 + Decitabine; first compound 8 µM) | relative viability (AZ505 + Pictilisib; first compound 0.08 µM) | relative viability (AZ505 + Pictilisib; first compound 0.253 µM) | relative viability (AZ505 + Pictilisib; first compound 0.8 µM) | relative viability (AZ505 + Pictilisib; first compound 2.53 µM) | relative viability (AZ505 + Pictilisib; first compound 8 µM) | relative viability (Dactolisib + AZD7762; first compound 0.002 µM) | relative viability (Dactolisib + AZD7762; first compound 0.006325 µM) | relative viability (Dactolisib + AZD7762; first compound 0.02 µM) | relative viability (Dactolisib + AZD7762; first compound 0.06325 µM) | relative viability (Dactolisib + AZD7762; first compound 0.2 µM) | relative viability (Dactolisib + Trametinib; first compound 0.002 µM) | relative viability (Dactolisib + Trametinib; first compound 0.006325 µM) | relative viability (Dactolisib + Trametinib; first compound 0.02 µM) | relative viability (Dactolisib + Trametinib; first compound 0.06325 µM) | relative viability (Dactolisib + Trametinib; first compound 0.2 µM)
NCI-H2347 | 0.545 | 0.572 | 0.511 | 0.461 | 0.505 | 0.551 | 0.581 | 0.537 | 0.455 | 0.541 | 0.75 | 0.78 | 0.715 | 0.532 | 0.458 | 0.277 | 0.262 | 0.263 | 0.158 | 0.295
NCI-H2405 | 0.605 |  | 0.702 | 0.703 | 0.647 | 0.256 | 0.21 | 0.278 | 0.259 | 0.254 | 0.773 | 0.768 | 0.674 | 0.48 | 0.253 | 0.469 | 0.665 | 0.56 | 0.389 | 0.253
NCI-H3122 | 0.417 | 0.414 | 0.418 | 0.454 | 0.431 | 0.561 | 0.573 | 0.665 | 0.409 | 0.643 | 0.971 | 0.892 | 1 | 0.953 | 0.488 | 0.207 | 0.218 | 0.232 | 0.219 | 0.176
PC-3 [JPC-3] | 0.849 |  | 0.861 | 0.79 | 0.79 | 0.597 | 0.702 | 0.676 | 0.706 | 0.827 | 0.841 | 0.788 | 0.685 | 0.666 | 0.353 | 0.718 | 0.673 | 0.76 | 0.595 | 0.451
PC-14 | 0.2 | 0.261 | 0.272 | 0.192 | 0.258 | 0.449 | 0.754 | 0.658 | 0.643 | 0.703 | 0.348 | 0.368 | 0.333 | 0.176 | 0.135 | 0.81 | 0.583 | 0.367 | 0.0961 | 0.0834
RERF-LC-KJ | 0.719 | 0.664 | 0.757 | 0.78 | 0.567 | 0.578 | 0.591 | 0.448 | 0.565 | 0.666 | 1.02 | 0.922 | 0.818 | 0.572 | 0.489 | 0.86 | 0.902 | 0.772 | 0.407 | 0.467
